Results from patent US11008340B2, “Modulators of ROR-gamma” (Vitae Pharmaceuticals, LLC, priority 2015, dated 2021).
Like-named read-outs stand apart in the source and are kept apart here.

How the values were obtained:
[1] = molecular target: T1, full-length RORγt in Jurkat cells (Homo sapiens, UniProt P51449); assay: RORγt 5×RORE Assay in Jurkat Cells (Assay 2); type: cell-based; conditions: 5×RORE luciferase reporter
T1 construct: transcriptional activity of the full-length RORγt in Jurkat cells; host or cells: Jurkat cells (ATCC TIB-152)
T1 sequence (P51449 1-497 isoform P51449-2): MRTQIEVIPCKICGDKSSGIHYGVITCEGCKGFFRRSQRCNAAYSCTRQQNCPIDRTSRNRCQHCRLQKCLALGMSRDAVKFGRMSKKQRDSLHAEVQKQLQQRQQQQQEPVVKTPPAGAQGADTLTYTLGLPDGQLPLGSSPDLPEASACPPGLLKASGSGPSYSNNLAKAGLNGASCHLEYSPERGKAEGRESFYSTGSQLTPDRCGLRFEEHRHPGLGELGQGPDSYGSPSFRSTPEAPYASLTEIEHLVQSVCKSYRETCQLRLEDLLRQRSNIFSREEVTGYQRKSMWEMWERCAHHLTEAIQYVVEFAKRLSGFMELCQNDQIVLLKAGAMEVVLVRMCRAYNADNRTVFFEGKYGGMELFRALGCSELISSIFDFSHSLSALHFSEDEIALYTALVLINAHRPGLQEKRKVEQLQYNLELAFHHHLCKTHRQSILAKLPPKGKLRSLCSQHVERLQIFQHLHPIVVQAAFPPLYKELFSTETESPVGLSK
Procedure, shortened: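 Jurkat cells transiently co-transfected with full-length RORγt expression plasmid and secreted NanoLuc reporter driven by 5×RORE; plated in phenol-red-free RPMI with 10% delipidated FBS. Compounds added at 0.1% DMSO final, 16-18 hrs at 37° C; supernatant luciferase read with NanoGlo as measure of inverse agonism.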

[2] = molecular target: T2, recombinant RORγ Ligand Binding Domain (LBD) protein (Homo sapiens, UniProt P51449); assay: Radio-Ligand RORγ Binding Assay (Assay 1); conditions: radio-ligand competition, 25-hydroxy [26,27-3H]-cholesterol, RORγ LBD; read-out: Avg ROR Bind Ki
T2 construct: 6×His; GST
T2 sequence (P51449 269-508 limits assumed): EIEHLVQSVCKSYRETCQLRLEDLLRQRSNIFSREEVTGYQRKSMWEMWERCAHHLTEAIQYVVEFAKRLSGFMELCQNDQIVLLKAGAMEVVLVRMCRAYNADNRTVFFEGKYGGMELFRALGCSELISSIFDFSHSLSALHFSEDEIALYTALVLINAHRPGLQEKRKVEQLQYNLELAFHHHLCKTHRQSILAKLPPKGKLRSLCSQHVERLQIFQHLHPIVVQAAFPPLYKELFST
Procedure, shortened: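 Cell-free SPA competition between compound and 25-hydroxy[26,27-^3H]-cholesterol for 6×His-GST-tagged RORγ LBD in 50 mM HEPES pH 7.4 with NaCl, MgCl2, glycerol, CHAPS, octylglucoside and DTT. Mix was shaken 20 min, held 10 min at rt, then read after poly-Lys YSi beads. IC50 came from a four-parameter fit, and Ki from radioligand KD.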

[3] = Table 20, read-out: Avg ROR γt/5x IC5

IC50 ([1]; read-out: Avg ROR γt/5x IC50) [nM] | Ki [2] [nM] | IC50 [1, 3] [nM] | SMILES
100 to 1000 | < 100 | – | CCS(=O)(=O)c1ccc(CNC(=O)c2ccc3c(c2)CCN(Cc2ccc(Cl)cc2)[C@@H]3C(C)C)cc1 (single isomer, unassigned) [Hy2A-20.2]
> 1000 | < 100 | – | CCS(=O)(=O)c1ccc(CNC(=O)c2ccc3c(c2)CCN(c2nccc(C(F)(F)F)n2)C3C(C)C)cc1 (centres unmarked) [Hy2A-3, N-(4-(ethylsulfonyl)benzyl)-1-isopropyl-2-(4-(trifluoromethyl)pyrimidin-2-yl)-1,2,3,4-tetrahydroisoquinoline-6-carboxamide]
– | < 100 | < 100 | CCOC(=O)c1cnc(N2Cc3cc(C(=O)NCc4ccc(S(=O)(=O)CC)cc4)ccc3[C@H](C(C)C)C2)nc1C(F)(F)F (single isomer, unassigned) [Hy7-26.1]
– | < 100 | < 100 | CC[C@@H]1CN(c2ccc(C(F)(F)F)cc2)Cc2cc(C(=O)NCc3ccc(S(=O)(=O)CC)cc3)ccc21 (single isomer, unassigned) [Hy7-7.1]
– | < 100 | 100 to 1000 | CCS(=O)(=O)c1ccc(CNC(=O)c2ccc3c(c2)CN(c2ncc(-c4ccc(=O)[nH]c4)cn2)C[C@H]3C(C)C)cc1 (single isomer, unassigned) [Hy7-21.1]

The remaining lines, values behind:

SMILES | IC50 ([1]; read-out: Avg ROR γt/5x IC50) [nM] | Ki [2] [nM] | IC50 [1, 3] [nM]
CCS(=O)(=O)c1ccc(CNC(=O)c2ccc3c(c2)C(C)(C)CN(Cc2ccc(C#N)cc2)C3C(C)C)cc1 (single isomer, unassigned) [Hy2A-23.2] | 100 to 1000 | < 100 | –
CCS(=O)(=O)c1ccc([C@H](CO)NC(=O)c2ccc3c(C4CC4)n(Cc4ccc(C(F)(F)F)cc4)nc3c2)nc1 [Hy3A-7, (R)-3-cyclopropyl-N-(1-(5-(ethylsulfonyl)pyridin-2-yl)-2-hydroxyethyl)-2-(4-(trifluoromethyl)benzyl)-2H-indazole-6-carboxamide] | < 100 | < 100 | –
CCS(=O)(=O)c1ccc([C@H](CO)NC(=O)c2ccc3c(Oc4ccc(OC(F)(F)F)cc4)nc(C)cc3c2)cc1 [Hy1A-15, (R)-N-(1-(4-(ethylsulfonyl)phenyl)-2-hydroxyethyl)-3-methyl-1-(4-(trifluoromethoxy)phenoxy)isoquinoline-6-carboxamide] | 100 to 1000 | < 100 | –
CCS(=O)(=O)c1ccc([C@H](CO)NC(=O)c2ccc3c(OCc4ccc(C(F)(F)F)cc4)cc(C)nc3c2)cc1 [Hy1B-3, (R)-N-(1-(4-(ethylsulfonyl)phenyl)-2-hydroxyethyl)-2-methyl-4-((4-(trifluoromethyl)benzyl)oxy)quinoline-7-carboxamide] | 100 to 1000 | < 100 | –
CCS(=O)(=O)c1ccc([C@H](CO)NC(=O)c2ccc3c(C4CC4)n(Cc4ccc(C(F)(F)F)cc4)nc3c2)cc1 [Hy3A-4, (R)-3-cyclopropyl-N-(1-(4-(ethylsulfonyl)phenyl)-2-hydroxyethyl)-2-(4-(trifluoromethyl)benzyl)-2H-indazole-6-carboxamide] | < 100 | < 100 | –
